In ChEMBL document CHEMBL4814003, “Novel dual-mode antitumor chlorin-based derivatives as potent photosensitizers and histone deacetylase inhibitors for photodynamic therapy and chemotherapy” (Eur J Med Chem, 2021):

Legend:
A549 [1] = assay: Phototoxicity in human A549 cells assessed as reduction in cell viability irradiated 10 j/cm2 for 24 hrs followed by incubated for 24 hrs by CCK8 assay; assay type: functional, cell-based; conditions: A549, light or radiation study
HCT-116 [2] = assay: Dark toxicity in human HCT-116 cells assessed as reduction in cell viability incubated under dark for 48 hrs measured after 48 hrs by CCK8 assay; assay type: functional, cell-based; conditions: HCT-116, 48 h
HCT-116 [3] = assay: Phototoxicity in human HCT-116 cells assessed as reduction in cell viability irradiated 10 j/cm2 for 24 hrs followed by incubated for 24 hrs by CCK8 assay; assay type: functional, cell-based; conditions: HCT-116, light or radiation study
A549 [4] = assay: Dark toxicity in human A549 cells assessed as reduction in cell viability incubated under dark for 48 hrs measured after 48 hrs by CCK8 assay; assay type: functional, cell-based; conditions: A549, 48 h
Histone deacetylase 1 = Histone deacetylase 1 (Homo sapiens, UniProt Q13547); assay: Inhibition of human recombinant HDAC1 using Ac-Leu-Gly-Lys(Ac)-AMC as substrate by measuring fluorescence intensity incubated for 30 mins by microplate reader assay
Histone deacetylase 1, sequence (Q13547 whole entry): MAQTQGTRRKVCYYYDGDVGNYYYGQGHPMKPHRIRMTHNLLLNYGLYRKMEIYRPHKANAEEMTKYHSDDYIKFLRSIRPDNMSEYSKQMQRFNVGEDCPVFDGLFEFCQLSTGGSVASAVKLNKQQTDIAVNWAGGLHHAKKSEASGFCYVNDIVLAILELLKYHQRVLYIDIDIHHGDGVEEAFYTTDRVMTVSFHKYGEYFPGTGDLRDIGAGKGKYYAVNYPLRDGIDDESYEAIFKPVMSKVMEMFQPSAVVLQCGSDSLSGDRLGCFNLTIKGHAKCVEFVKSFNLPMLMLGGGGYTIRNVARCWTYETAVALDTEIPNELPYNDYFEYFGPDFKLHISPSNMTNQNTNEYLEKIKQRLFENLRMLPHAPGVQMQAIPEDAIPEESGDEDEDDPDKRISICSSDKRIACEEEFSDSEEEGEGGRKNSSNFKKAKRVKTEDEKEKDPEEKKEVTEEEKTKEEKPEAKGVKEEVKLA

A549 [5] = assay: Induction of reactive oxygen species generation in human A549 cells assessed as mean count value at 0.05 uM incubated for 24 hrs by DCFH-DA staining based fluorescence microscopy assay; assay type: functional
A549 [6] = assay: Induction of reactive oxygen species generation in human A549 cells assessed as mean count value at 0.01 uM incubated for 24 hrs by DCFH-DA staining based fluorescence microscopy assay; assay type: functional
A549 [7] = assay: Induction of autophagy in human A549 cells irradiated 10 j/cm2 at 0.1 uM after 24 hrs using fluorescent molecule DAPRed; assay type: functional

IC50 (Histone deacetylase 1) [nM]	Compound	IC50 (A549 [1]) [nM]	IC50 (HCT-116 [2]) [nM]	IC50 (HCT-116 [3]) [nM]	IC50 (A549 [4]) [nM]	Activity (A549 [5])	Activity (A549 [6])	Activity (A549 [7]) [%]
28000	C=Cc1c(C)c2cc3nc(cc4[nH]c(cc5nc(cc1[nH]2)C(C)=C5CC)c(C)c4C(=O)OC)[C@@H](CCC(=O)Nc1ccc(C(=O)NO)cc1)[C@@H]3C	900	4600	31	9240	–	–	–
224000	C=Cc1c(C)c2cc3nc(c(C(=O)OC)c4[nH]c(cc5nc(cc1[nH]2)C(C)=C5CC)c(C)c4C(=O)OC)[C@@H](CCC(=O)Nc1ccccc1N)[C@@H]3C	180	4140	23	590	–	–	–
49000	C=Cc1c(C)c2cc3nc(c(C(=O)OC)c4[nH]c(cc5nc(cc1[nH]2)C(C)=C5CC)c(C)c4C(=O)OC)[C@@H](CCC(=O)NCCCCC(=O)NO)[C@@H]3C	180	2810	108	1510	–	–	–
11000	C=Cc1c(C)c2cc3nc(c(C(=O)OC)c4[nH]c(cc5nc(cc1[nH]2)C(C)=C5CC)c(C)c4C(=O)OC)[C@@H](CCC(=O)Nc1ccc(C(=O)NO)cc1)[C@@H]3C	130	3490	270	930	–	–	–
88000	C=Cc1c(C)c2cc3nc(c(C(=O)OC)c4[nH]c(cc5nc(cc1[nH]2)C(C)=C5CC)c(C)c4C(=O)OC)[C@@H](CCC(=O)NCCCCCC(=O)NO)[C@@H]3C	120	6890	39	1360	–	–	–
201000	C=Cc1c(C)c2cc3nc(c(C(=O)OC)c4[nH]c(cc5nc(cc1[nH]2)C(C)=C5CC)c(C)c4C(=O)OC)[C@@H](CCC(=O)NCCCC(=O)Nc1ccccc1N)[C@@H]3C	310	9140	330	3730	–	–	–
90000	C=Cc1c(C)c2cc3nc(c(C(=O)OC)c4[nH]c(cc5nc(cc1[nH]2)C(C)=C5CC)c(C)c4C(=O)OC)[C@@H](CCC(=O)NCCCCCC(=O)Nc1ccccc1N)[C@@H]3C	230	9280	210	2670	–	–	–

Further lines, the compound ahead of its results:

Compound	IC50 (Histone deacetylase 1) [nM]	IC50 (A549 [1]) [nM]	IC50 (HCT-116 [2]) [nM]	IC50 (HCT-116 [3]) [nM]	IC50 (A549 [4]) [nM]	Activity (A549 [5])	Activity (A549 [6])	Activity (A549 [7]) [%]
C=Cc1c(C)c2cc3nc(c(C(=O)OC)c4[nH]c(cc5nc(cc1[nH]2)C(C)=C5CC)c(C)c4C(=O)OC)[C@@H](CCC(=O)O)[C@@H]3C	–	300	31300	520	15700	–	–	–
C=Cc1c(C)c2cc3nc(c(C(=O)OC)c4[nH]c(cc5nc(cc1[nH]2)C(C)=C5CC)c(C)c4C(=O)OC)[C@@H](CCC(=O)NCCCC(=O)NO)[C@@H]3C	40000	220	5540	220	1840	–	–	–
C=Cc1c(C)c2cc3nc(c(CC(=O)N[C@@H](CC(=O)O)C(=O)O)c4[nH]c(cc5nc(cc1[nH]2)C(C)=C5CC)c(C)c4C(=O)O)[C@@H](CCC(=O)O)[C@@H]3C [TALAPORFIN]	–	6210	50700	2950	181000	153.14	125.93	19.08
C=Cc1c(C)c2cc3nc(c(C(=O)OC)c4[nH]c(cc5nc(cc1[nH]2)C(C)=C5CC)c(C)c4C(=O)OC)[C@@H](CCC(=O)NCCCCC(=O)Nc1ccccc1N)[C@@H]3C	81000	300	8630	260	3510	–	–	–
C=Cc1c(C)c2cc3nc(cc4[nH]c(cc5nc(cc1[nH]2)C(C)=C5CC)c(C)c4C(=O)OC)[C@@H](CCC(=O)O)[C@@H]3C	–	920	21800	1470	15300	–	–	–
C=Cc1c(C)c2cc3nc(c(C(=O)OC)c4[nH]c(cc5nc(cc1[nH]2)C(C)=C5CC)c(C)c4C(=O)OC)[C@@H](CCC(=O)NO)[C@@H]3C	79000	130	4180	11	370	–	–	–
